Our source for the IC50, EC50 and AC50 values is ChEMBL document CHEMBL1201862, “PubChem BioAssay data set” (2004).

Assay [1] has as its target T1, Apoptotic protease-activating factor 1 (Homo sapiens, UniProt O14727).
T1 sequence (O14727 whole entry): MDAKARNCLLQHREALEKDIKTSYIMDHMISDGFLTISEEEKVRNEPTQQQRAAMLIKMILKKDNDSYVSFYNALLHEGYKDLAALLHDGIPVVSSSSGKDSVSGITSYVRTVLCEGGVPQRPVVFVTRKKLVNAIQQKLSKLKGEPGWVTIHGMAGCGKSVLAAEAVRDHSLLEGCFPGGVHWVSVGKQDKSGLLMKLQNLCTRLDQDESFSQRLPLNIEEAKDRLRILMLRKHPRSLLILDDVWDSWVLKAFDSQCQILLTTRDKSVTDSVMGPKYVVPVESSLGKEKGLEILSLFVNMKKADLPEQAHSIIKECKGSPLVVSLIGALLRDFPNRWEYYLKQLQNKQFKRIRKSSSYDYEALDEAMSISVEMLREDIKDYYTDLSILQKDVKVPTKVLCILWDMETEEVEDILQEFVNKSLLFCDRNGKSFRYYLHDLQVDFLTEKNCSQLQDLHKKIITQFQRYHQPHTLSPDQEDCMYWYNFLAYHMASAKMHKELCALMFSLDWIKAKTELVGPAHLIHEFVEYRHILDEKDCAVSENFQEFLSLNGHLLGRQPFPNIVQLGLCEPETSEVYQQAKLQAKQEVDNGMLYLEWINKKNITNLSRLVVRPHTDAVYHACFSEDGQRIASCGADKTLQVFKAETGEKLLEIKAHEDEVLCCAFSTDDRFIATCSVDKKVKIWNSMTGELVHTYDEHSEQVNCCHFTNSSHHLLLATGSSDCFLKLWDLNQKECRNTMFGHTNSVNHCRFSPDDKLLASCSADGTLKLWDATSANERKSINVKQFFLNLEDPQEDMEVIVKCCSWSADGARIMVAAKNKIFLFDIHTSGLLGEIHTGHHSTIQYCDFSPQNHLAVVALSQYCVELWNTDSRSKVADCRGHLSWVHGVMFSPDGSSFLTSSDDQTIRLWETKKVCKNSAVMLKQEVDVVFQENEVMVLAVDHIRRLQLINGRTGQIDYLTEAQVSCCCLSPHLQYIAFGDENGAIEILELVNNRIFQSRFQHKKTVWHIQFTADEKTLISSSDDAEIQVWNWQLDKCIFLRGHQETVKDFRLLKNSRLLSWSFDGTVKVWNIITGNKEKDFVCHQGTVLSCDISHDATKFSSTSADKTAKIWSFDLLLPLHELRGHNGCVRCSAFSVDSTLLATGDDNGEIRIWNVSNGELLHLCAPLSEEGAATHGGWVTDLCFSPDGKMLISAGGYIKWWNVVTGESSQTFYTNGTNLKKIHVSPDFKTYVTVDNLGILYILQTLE
In kind it is functional.

In assay [2] the target is T2, Oxysterols receptor LXR-beta (Homo sapiens, UniProt P55055).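 Further: Cell-based luminescence dose-response assay of agonist activity at LXR, run as a confirmatory counterscreen to a daf-12 agonist screen; HEK293 cells with Gal4-LXR fusion and GAL4-driven luciferase reporter; agonist potency from rising luciferase signal of a Gal4-LXR reporter.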
T2 sequence (P55055 whole entry): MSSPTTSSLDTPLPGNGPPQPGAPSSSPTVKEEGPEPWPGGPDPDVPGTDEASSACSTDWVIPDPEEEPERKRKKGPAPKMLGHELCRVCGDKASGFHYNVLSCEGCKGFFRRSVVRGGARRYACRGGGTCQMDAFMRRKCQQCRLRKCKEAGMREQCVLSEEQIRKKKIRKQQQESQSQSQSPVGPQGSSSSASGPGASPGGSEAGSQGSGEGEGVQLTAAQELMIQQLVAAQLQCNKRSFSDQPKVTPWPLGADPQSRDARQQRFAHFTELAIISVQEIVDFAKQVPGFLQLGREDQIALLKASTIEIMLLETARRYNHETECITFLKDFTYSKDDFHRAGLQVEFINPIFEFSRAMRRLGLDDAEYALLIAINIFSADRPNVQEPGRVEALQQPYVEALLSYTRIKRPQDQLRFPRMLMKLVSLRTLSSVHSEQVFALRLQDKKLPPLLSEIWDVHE
It counts as functional, cell-based.

The target in assay [3] is T3, Replicative DNA helicase DnaB (Mycobacterium tuberculosis, UniProt P9WMR3).
T3 sequence (P9WMR3 whole entry): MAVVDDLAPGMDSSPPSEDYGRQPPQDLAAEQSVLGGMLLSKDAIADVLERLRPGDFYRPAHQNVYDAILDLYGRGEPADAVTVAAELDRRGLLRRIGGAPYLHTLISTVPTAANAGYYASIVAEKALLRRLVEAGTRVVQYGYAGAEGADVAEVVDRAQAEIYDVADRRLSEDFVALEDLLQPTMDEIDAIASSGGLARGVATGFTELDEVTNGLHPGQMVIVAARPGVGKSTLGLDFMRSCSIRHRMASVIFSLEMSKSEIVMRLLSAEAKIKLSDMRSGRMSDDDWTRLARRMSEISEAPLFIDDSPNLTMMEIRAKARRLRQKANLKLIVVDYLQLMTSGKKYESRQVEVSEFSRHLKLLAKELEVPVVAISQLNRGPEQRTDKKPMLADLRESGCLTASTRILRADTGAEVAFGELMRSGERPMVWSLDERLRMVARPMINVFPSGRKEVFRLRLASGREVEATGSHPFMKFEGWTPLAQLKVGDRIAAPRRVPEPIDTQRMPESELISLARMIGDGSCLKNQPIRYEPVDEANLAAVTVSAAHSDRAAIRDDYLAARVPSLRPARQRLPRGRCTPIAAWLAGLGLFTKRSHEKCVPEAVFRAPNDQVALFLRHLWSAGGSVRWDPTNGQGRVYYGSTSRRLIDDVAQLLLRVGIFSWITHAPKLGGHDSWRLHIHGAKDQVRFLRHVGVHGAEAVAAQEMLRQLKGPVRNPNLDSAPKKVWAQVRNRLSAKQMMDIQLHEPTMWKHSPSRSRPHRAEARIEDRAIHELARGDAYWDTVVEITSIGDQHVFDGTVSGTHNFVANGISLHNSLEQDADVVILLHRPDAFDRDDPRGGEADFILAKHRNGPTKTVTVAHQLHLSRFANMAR
Kind of assay: DnaB intein splicing inhibitors, dose response, biochemical, cell-free fluorescence (AID 449749). In kind it is functional.

A further assay has as its target T4, Protein RecA (Mycobacterium tuberculosis, UniProt P9WHJ3).
T4 sequence (P9WHJ3 whole entry): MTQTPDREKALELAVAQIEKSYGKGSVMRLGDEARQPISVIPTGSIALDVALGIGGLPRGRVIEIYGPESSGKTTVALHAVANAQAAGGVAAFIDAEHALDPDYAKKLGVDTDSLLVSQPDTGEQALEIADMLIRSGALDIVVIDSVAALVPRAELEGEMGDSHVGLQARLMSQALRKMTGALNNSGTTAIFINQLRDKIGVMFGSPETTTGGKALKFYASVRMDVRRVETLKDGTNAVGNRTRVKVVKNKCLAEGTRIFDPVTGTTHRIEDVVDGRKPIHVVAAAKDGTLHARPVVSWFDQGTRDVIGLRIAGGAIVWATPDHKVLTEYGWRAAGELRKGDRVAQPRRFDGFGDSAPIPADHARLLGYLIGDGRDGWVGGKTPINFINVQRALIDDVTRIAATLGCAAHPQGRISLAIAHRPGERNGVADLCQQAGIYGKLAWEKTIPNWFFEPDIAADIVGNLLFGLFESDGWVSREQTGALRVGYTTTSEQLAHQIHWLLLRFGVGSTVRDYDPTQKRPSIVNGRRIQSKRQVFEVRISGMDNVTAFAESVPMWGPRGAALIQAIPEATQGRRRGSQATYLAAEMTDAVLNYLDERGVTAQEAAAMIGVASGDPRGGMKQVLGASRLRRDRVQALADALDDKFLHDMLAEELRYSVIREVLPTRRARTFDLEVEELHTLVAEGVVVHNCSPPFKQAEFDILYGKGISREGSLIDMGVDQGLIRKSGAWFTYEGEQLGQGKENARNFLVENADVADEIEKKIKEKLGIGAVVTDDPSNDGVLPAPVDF
The experiment in a line: Fluorescence Cell-Free Homogeneous Dose Retest to Identify Inhibitors of RecA-Intein Splicing Activity. [Related pubchem assays (depositor defined):AID2097, AID2223, AID489010, AID492950]. It counts as functional.

In assay [4] the target is Protein disulfide-isomerase (Homo sapiens, UniProt P07237). Kind of assay: PDI inhibitors, insulin aggregation turbidity, dose response, biochemical, absorbance, cherry-picked samples (AID 602350). It counts as functional.
Chain of Protein disulfide-isomerase (P07237 whole entry): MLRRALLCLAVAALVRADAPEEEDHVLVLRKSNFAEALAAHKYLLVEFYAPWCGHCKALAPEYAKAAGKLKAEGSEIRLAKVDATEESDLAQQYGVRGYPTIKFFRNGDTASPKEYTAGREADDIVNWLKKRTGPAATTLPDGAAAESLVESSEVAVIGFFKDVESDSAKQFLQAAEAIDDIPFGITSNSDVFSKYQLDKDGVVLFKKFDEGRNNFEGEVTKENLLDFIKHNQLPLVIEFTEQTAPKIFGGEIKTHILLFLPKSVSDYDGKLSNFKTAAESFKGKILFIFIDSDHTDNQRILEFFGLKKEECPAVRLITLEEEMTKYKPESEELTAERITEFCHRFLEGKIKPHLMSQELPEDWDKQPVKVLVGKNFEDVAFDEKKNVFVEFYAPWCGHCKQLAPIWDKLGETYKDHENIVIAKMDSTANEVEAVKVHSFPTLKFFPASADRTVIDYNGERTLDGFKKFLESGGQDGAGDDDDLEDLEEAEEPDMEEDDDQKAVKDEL
Assay [5] has as its target Dual specificity tyrosine-phosphorylation-regulated kinase 1A (Rattus norvegicus, UniProt Q63470). It counts as biochemical, Homo sapiens.
Assay [6] has as its target Ras and Rab interactor 1/Tyrosine-protein kinase ABL1 (Homo sapiens, UniProt P00519+Q13671). It counts as functional.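 Further: biochemical TR-FRET dose-response test measuring inhibition of binding between Rin1 and Abl proteins.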
For assay [7], the target named is T1, Apoptotic protease-activating factor 1. Kind of assay: SAR analysis of small molecule Activators of Apaf-1 in a Fluorescent assay. It counts as functional. As to conditions: read-out: EC50_Mean.
The target in assay [8] is T5, Aryl hydrocarbon receptor (Homo sapiens, UniProt P35869).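 Further: confirmatory quantitative high-throughput screen measuring activation of the AhR signaling pathway.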
T5 sequence (P35869 whole entry): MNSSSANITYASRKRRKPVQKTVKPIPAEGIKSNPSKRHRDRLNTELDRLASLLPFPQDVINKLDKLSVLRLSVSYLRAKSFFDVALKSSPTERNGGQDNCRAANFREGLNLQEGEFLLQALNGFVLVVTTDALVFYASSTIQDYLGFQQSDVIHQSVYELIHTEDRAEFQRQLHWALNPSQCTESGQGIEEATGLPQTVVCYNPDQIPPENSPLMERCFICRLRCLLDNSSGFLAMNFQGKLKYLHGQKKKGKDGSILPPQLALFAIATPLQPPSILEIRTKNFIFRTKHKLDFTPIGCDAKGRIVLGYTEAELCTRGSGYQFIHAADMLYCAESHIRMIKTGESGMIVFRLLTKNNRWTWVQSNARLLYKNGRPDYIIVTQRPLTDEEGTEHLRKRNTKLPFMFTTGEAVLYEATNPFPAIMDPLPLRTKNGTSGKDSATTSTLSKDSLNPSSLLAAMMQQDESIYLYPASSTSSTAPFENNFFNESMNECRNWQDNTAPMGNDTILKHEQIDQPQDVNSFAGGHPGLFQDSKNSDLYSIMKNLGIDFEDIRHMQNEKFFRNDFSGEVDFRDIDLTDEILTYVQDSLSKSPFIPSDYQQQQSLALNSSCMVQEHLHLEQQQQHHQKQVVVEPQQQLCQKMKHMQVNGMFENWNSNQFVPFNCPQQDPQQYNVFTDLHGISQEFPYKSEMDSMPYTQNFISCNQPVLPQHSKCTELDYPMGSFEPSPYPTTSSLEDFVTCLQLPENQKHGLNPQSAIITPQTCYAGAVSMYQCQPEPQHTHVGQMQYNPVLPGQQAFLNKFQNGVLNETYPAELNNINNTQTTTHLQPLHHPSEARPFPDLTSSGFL
As to conditions: Potency.

The target of another assay is Cytochrome P450 3A4 (Homo sapiens, UniProt P08684). As to conditions: Potency.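 Further: confirmatory qHTS run detecting inhibitors and substrates of CYP3A4.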
Chain of Cytochrome P450 3A4 (P08684 whole entry): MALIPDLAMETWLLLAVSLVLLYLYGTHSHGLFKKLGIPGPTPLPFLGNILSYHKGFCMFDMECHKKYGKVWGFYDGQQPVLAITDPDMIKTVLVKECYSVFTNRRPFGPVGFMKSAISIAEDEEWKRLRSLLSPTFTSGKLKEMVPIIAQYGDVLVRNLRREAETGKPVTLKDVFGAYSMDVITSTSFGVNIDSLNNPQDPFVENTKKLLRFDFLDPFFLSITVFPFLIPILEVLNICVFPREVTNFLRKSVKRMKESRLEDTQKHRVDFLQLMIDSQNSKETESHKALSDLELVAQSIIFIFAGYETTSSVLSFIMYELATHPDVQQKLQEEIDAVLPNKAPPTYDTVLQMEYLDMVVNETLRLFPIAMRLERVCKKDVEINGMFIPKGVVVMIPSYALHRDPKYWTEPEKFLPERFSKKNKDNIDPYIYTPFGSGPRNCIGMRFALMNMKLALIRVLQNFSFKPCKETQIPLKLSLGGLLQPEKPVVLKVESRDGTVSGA
In assay [9] the target is Tyrosine-protein phosphatase non-receptor type 5 (Homo sapiens, UniProt P54829). Kind of assay: STEP phosphatase inhibitors, confirmation, biochemical, fluorescence intensity, uHTS hits (AID 602372). It counts as functional. The conditions noted are these: read-out: IC50_Mean.
Chain of Tyrosine-protein phosphatase non-receptor type 5 (P54829 whole entry): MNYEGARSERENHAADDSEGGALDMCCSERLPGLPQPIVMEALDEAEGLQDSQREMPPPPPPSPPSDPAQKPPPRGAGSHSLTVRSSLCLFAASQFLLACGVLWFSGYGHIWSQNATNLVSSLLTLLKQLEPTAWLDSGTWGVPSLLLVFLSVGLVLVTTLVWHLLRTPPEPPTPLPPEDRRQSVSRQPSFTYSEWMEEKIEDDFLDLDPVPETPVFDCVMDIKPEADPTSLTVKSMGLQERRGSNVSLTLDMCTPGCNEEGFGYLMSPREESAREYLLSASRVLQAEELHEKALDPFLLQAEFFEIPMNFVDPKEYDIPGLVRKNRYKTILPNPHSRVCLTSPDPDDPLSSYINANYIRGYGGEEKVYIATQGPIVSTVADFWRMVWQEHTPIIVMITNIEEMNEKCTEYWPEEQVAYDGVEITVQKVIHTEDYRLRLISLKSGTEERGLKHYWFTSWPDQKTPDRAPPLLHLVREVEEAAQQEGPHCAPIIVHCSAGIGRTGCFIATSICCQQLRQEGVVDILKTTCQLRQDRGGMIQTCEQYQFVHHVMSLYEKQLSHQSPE
The target in assay [10] is Tyrosine-protein phosphatase non-receptor type 11 (Homo sapiens, UniProt Q06124). Kind of assay: SHP2 phosphatase inhibition, dose response, selectivity assay for STEP inhibitor project, biochemical (AID 602367). It counts as functional. The conditions noted are these: read-out: IC50_Mean.
Chain of Tyrosine-protein phosphatase non-receptor type 11 (Q06124 whole entry): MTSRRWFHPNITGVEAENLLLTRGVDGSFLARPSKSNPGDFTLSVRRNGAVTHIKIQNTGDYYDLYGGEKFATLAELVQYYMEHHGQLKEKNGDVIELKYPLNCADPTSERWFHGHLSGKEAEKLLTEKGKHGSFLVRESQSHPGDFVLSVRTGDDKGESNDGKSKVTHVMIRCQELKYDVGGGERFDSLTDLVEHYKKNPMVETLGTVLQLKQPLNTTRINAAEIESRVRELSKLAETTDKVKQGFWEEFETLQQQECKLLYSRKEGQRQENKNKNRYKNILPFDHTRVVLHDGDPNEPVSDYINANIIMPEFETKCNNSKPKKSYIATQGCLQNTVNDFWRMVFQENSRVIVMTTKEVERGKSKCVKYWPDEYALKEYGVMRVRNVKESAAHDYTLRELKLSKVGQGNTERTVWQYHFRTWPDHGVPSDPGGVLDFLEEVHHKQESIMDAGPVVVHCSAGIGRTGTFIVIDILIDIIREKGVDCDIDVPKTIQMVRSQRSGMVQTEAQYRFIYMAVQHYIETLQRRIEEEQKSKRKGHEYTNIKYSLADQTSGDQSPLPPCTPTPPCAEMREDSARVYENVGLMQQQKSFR
The target in assay [11] is T6, Low molecular weight phosphotyrosine protein phosphatase (Homo sapiens, UniProt P24666).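 Further: Dose-response confirmation assay measuring inhibition of LMPTP enzyme activity by fluorescence intensity read-out.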
T6 sequence (P24666 whole entry): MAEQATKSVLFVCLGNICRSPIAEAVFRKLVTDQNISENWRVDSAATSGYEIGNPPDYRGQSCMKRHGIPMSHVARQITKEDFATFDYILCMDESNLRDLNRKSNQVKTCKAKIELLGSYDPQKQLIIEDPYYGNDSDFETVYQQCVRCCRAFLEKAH
In kind it is functional. As to conditions: read-out: IC50_Mean.

The target of assay [12] is Dual specificity protein phosphatase 3 (Homo sapiens, UniProt P51452). Kind of assay: VHR phosphatase inhibition, dose response, selectivity assay for STEP inhibitor project, biochemical (AID 602374). In kind it is functional. The conditions noted are these: read-out: IC50_Mean.
Chain of Dual specificity protein phosphatase 3 (P51452 whole entry): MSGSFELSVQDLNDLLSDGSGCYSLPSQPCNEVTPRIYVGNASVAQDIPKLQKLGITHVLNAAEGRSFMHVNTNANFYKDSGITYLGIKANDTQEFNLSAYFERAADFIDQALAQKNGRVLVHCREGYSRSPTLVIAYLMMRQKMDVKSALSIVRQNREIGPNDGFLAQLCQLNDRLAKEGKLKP

Active and inactive are the calls of the source. A value given as a limit tells only on which side of the number the result lay.
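Wherever EC50 Mean is given: caspase-3 cleavage of fluorogenic Rh110 DEVD substrate downstream of apoptosome activation.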

Chain of Ras and Rab interactor 1/Tyrosine-protein kinase ABL1 (P00519 whole entry): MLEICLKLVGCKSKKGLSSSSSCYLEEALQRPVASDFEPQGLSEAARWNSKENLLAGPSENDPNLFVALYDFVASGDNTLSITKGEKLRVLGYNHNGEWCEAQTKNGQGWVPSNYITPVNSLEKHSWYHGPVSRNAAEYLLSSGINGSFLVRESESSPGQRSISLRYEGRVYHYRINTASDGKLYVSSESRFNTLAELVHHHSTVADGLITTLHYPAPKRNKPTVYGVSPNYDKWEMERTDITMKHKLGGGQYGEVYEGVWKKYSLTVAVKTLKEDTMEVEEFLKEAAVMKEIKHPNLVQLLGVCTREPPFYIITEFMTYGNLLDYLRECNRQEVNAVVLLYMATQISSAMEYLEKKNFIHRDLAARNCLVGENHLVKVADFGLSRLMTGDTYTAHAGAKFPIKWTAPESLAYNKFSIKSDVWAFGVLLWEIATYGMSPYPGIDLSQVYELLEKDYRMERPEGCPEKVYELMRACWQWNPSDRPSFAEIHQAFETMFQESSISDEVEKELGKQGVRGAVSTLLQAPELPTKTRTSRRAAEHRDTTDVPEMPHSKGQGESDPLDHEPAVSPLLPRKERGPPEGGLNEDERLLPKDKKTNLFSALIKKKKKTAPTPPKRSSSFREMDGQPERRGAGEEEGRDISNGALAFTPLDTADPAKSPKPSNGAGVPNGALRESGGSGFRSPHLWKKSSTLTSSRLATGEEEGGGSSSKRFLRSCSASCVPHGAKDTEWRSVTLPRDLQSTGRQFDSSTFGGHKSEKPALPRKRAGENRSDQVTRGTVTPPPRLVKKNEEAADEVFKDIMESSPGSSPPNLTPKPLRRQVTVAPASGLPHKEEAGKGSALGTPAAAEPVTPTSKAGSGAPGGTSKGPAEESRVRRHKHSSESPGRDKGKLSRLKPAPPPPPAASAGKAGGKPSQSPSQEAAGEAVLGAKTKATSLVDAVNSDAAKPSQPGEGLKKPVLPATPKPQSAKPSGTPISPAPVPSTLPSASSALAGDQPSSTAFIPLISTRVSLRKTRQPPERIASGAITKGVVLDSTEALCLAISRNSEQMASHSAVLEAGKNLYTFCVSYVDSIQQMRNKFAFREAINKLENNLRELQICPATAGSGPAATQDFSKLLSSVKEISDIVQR
Chain of Ras and Rab interactor 1/Tyrosine-protein kinase ABL1 (Q13671 whole entry): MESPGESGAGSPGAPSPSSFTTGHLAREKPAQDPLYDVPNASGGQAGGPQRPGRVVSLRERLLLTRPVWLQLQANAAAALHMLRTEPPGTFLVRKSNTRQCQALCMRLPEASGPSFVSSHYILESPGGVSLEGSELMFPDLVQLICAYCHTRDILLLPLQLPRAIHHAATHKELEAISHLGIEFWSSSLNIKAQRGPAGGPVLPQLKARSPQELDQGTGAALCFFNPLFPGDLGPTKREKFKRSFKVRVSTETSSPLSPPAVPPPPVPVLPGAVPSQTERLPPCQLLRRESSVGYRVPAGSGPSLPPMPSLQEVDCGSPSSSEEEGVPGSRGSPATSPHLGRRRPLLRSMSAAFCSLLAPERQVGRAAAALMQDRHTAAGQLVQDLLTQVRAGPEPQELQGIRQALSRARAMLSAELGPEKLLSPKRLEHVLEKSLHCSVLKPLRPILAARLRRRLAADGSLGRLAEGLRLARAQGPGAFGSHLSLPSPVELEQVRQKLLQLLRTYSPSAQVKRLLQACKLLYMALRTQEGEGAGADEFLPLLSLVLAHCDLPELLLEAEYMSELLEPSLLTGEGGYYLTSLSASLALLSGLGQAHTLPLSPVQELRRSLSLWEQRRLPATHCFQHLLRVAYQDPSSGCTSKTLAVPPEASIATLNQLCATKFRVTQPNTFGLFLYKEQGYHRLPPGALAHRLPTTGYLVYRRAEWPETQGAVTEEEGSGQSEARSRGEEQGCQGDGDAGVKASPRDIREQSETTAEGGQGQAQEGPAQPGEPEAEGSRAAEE

For the molecule `O=[N+]([O-])c1ccccc1-c1ccc(C(=S)N2CCCC2)o1`, the IC50 in assay [1] is 49.8 µM (active). In addition, the EC50 (in assay [2]; in “cells”) was > 67.5 µM (inactive) each time.

Regarding `CCCc1n[nH]c2c1C(c1ccc(OC)c(CSC3=NCCS3)c1)C(C#N)=C(N)O2` (stereo unspecified), the IC50 in assay [1] is 23.9 µM (active). In assay [3], the AC50 was 2.99 µM (active). On Protein RecA, the EC50 was 4.56 µM (active).

`C[C@@H]1O[C@@H](OC[C@H]2O[C@@H](Oc3c(-c4ccc(O)c(O)c4)oc4cc(O)cc(O)c4c3=O)[C@H](O)[C@@H](O)[C@@H]2O)[C@H](O)[C@H](O)[C@H]1O`: the AC50 in assay [4] was 7.62 µM (active); in [5], 4.08 µM (active). Moreover, the IC50 in assay [6] was > 73.5 µM (inactive).

Take `COc1ccccc1CNC(=O)CSc1nnc2ccc(-c3cccnc3)nn12`: the IC50 in assay [6] is > 73.5 µM (inactive).

Regarding `CN1CCC(Oc2ccccc2N2CC(C(=O)O)CC2=O)CC1` (stereo unspecified), the EC50 in assay [7] is > 100 µM (inactive).

Turning to `Nc1ccc(Cl)c(Cl)c1`, the AC50 was 56.2 µM (inconclusive) in assay [8] and 25.1 µM (inconclusive) on Cytochrome P450 3A4.

In the case of `O=C(Nc1ccc(F)cc1F)C1CC(c2ccc(F)cc2)=NO1` (stereo unspecified), in [7], the EC50 is > 100 µM (inactive).

For `C[C@@H]1O[C@@H](O[C@H]2[C@H](O)[C@@H](O)[C@H](Oc3c(-c4ccc(O)cc4)oc4cc(O)cc(O)c4c3=O)O[C@@H]2CO)[C@H](O)[C@H](O)[C@H]1O`, the AC50 in assay [4] was 6.92 µM (active).

`Cc1ccc(S(=O)(=O)N2CCCCC2)cc1NC(=O)c1ccc(=O)[nH]c1`: the IC50 was 29.6 µM (inactive) in assay [9], 4.88 µM (active) in assay [10], 37.1 µM (inactive) in assay [11] and 3.08 µM (active) in assay [12].

`CC(C)OC(=O)Cc1ccccc1`: the concentration at half-maximal activity (AC50) in assay [8] was 35.5 µM (inconclusive).

Consider `O=c1c(O[C@@H]2O[C@H](CO)[C@@H](O)[C@H](O)[C@H]2O)c(-c2ccc(O)cc2)oc2cc(O)cc(O)c12` [ASTRAGALIN], for which the AC50 in [4] was 19 µM (active).

The term AC50 denotes the concentration at which the activity in the assay is half-maximal.
